Experimental data taken from patent publication US20030166202A1, “P450 Monooxygenases of the cyp79 family” (priority 2000, published 2003).

How the values were obtained:
CYP79F1 = CYP79F1 (Arabidopsis thaliana, UniProt Q949U1, M2A); conditions: E. coli C43(DE3) spheroplasts, GC-MS or TLC
Experimental: In a typical enzyme assay, 5 μl spheroplasts and 4 μl NADPH:cytochrome P450 reductase (equivalent to 0.04 units defined as 1 μmol cytochrome c/min) are incubated with substrate in buffer containing 30 mM KPi, pH 7.5, 3 mM NADPH, 3 mM reduced glutathione, 0.042% Tween 80, 1 mg ml^−1 L-α-dilauroylphosphatidylcholine in a total volume of 30 μl. Reaction mixtures containing spheroplasts of E. coli C43(DE3) transformed with empty vector are used as controls in all assays. 3.3 μM L-[U-^14C]phenylalanine (453 mCi/mmol; Pharmacia), 3.7 μM L-[U-^14C]tyrosine (449 mCi/mmol; Pharmacia), 0.1 mM L-[methyl-^14C]methionine (56 mCi/mmol; Pharmacia), and 24 μM L-[side chain-3-^14C]tryptophan (56.5 mCi/mmol; NEN) are tested as potential substrates. After incubation at 28° C. for 1 hour, half of the reaction mixture is analyzed by TLC on Silica Gel 60 F254 sheets (Merck) using toluene/ethyl acetate 5:1 (v/v) as eluent. Radiolabelled bands are visualized and quantified using a STORM 840 phosphoimager (Pharmacia). For GC-MS analysis, 450 μl reaction mixture containing 3.3 mM L-methionine (Sigma), 3.3 mM DL-dihomomethionine or 3.3 mM DL-trihomomethionine, respectively, are incubated for 4 hours at 25° C. and extracted with a total volume of 600 μl CHCl3. The organic phase is collected, evaporated, and the residue is dissolved in 15 μl CHCl3 and analyzed by GC-MS. […] An SGE column (BPX5, 25 m×0.25 mm, 0.25 μm film thickness) is used (heat pressure 100 kPa, splitless injection). The oven temperature program is as follows: 80° C. for 3 minutes, 80° C. to 180° C. at 5° C. min^−1, 180° C. to 300° C. at 20° C. min^−1, and 300° C. for 10 min. The ion source is run in EI mode (70 eV) at 200° C. […] DL-dihomomethionine, DL-trihomomethionine, 5-methylthiopentanaldoxime and 6-methylthiohexanaldoxime are synthesized as described (Dawson et al, J. Biol. Chem. 268: 27154-27159, 1993) and authenticated by NMR spectroscopy.

CYP79A2 = molecular target: T1, CYP79A2 (Arabidopsis thaliana, UniProt Q9FLC8); assay: CYP79A2 activity in E. coli spheroplasts reconstituted with NADPH:cytochrome P450 oxidoreductase; conditions: TLC or GC-MS detection
T1 sequence (Q9FLC8 7-529 limits assumed): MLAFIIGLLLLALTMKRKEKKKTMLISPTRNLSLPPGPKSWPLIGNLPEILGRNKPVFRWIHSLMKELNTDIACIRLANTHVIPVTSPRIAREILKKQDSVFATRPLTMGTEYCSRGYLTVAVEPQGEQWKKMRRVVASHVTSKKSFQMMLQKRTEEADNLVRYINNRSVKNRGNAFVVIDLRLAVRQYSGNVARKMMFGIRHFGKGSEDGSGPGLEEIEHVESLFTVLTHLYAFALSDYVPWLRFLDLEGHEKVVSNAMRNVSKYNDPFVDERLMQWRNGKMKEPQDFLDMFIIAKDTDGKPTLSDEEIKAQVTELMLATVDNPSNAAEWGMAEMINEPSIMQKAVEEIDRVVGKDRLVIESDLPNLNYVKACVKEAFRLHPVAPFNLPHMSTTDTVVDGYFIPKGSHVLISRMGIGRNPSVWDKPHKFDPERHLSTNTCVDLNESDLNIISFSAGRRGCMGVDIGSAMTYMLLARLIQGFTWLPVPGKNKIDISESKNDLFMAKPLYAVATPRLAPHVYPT

CYP79F1, sequence (Q949U1 whole entry M2A): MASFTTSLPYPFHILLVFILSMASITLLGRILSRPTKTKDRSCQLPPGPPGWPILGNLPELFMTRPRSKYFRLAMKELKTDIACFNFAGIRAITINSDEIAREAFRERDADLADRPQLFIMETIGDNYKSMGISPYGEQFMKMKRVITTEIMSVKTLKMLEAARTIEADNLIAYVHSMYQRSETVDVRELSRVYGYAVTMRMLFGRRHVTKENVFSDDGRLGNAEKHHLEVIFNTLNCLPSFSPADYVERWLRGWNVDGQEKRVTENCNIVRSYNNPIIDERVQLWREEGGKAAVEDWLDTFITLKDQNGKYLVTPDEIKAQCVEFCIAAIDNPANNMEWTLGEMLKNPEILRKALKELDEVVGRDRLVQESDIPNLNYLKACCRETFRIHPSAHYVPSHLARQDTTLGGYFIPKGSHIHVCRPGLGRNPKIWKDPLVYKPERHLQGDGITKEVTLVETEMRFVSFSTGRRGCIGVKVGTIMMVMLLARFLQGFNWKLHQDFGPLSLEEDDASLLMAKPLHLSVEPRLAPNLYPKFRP

## N[C@@H](Cc1ccc(O)cc1)C(=O)O [L-tyrosine]
CYP79F1
  formation of the corresponding aldoxime by CYP79F1: did not result in the formation of detectable amounts of the corresponding aldoximes
CYP79A2
  production of the respective aldoxime by CYP79A2: does not result in production of detectable amounts of the respective aldoximes
